Converted amounts (≈) assume the structure as drawn. One block for each molecule: values may come before it.
What was measured:
[1] = stability investigation (influencing factor, accelerated, intermediate, long term); format: physicochemical
TYK2 = TYK2 (Homo sapiens, UniProt P29597); assay: migration detection kinase assay, TYK2; format: biochemical
[2] = dynamic solubility in simulated gastrointestinal fluid; format: physicochemical; details: for solubility at 1 h / solubility at 4 h / solubility at 24 h: 37° C.; for XRPD of remaining solid: after 24 h
Procedure: After 24 h, the pH of the suspension was determined. The remaining suspension was centrifuged, and the remaining solid was subjected to XRPD characterization.

[3] = press testing (crystal transformation under pressure); format: physicochemical; details: 10 Mpa, 5 min
simulated wet grinding = format: physicochemical; details: 3 min
JAK3 = target: T1, JAK3 (Homo sapiens, UniProt P52333); assay: migration detection kinase assay, JAK3; format: biochemical; details: 1 mM ATP
T1 sequence (P52333 1-1124): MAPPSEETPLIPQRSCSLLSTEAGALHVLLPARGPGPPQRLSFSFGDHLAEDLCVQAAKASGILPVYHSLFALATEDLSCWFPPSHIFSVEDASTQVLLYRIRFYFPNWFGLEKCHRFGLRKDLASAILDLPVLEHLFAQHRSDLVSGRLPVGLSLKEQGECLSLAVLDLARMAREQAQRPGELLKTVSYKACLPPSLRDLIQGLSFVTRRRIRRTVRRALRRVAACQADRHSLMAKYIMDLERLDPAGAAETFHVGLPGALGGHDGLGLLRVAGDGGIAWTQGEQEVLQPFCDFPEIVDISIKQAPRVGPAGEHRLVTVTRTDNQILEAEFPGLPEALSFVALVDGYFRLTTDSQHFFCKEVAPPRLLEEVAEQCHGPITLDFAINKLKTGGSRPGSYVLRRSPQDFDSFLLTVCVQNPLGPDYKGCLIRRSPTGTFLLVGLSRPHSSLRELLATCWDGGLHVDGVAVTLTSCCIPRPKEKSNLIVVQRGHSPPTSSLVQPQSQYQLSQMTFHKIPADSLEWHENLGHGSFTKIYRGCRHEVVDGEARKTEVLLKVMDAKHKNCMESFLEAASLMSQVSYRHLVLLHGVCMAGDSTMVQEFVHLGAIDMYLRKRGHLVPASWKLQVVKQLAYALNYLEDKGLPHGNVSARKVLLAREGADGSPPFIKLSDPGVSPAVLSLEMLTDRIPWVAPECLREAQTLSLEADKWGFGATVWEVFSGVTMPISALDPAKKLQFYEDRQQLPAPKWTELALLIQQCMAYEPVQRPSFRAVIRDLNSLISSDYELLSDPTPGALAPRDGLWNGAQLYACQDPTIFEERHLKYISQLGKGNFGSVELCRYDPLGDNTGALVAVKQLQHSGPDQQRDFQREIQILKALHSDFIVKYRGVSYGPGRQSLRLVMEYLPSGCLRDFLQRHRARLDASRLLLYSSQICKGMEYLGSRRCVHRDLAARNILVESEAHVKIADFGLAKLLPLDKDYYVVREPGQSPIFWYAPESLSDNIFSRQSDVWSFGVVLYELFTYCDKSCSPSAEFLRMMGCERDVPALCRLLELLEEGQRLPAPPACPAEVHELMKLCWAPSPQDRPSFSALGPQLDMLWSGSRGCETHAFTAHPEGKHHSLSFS

[4] = water activity experiment at 25° C.; format: physicochemical; details: for XRPD result: 25° C.
Text: The resulting solid was filtered and subjected to XRPD characterization.

simulated dry grinding = format: physicochemical; details: dry grinding for 3 min
hygroscopicity by DVS = format: physicochemical
JAK1 = JAK1 (Homo sapiens, UniProt P23458); assay: migration detection kinase assay, JAK1; format: biochemical
Sequence of JAK1 (P23458 whole entry): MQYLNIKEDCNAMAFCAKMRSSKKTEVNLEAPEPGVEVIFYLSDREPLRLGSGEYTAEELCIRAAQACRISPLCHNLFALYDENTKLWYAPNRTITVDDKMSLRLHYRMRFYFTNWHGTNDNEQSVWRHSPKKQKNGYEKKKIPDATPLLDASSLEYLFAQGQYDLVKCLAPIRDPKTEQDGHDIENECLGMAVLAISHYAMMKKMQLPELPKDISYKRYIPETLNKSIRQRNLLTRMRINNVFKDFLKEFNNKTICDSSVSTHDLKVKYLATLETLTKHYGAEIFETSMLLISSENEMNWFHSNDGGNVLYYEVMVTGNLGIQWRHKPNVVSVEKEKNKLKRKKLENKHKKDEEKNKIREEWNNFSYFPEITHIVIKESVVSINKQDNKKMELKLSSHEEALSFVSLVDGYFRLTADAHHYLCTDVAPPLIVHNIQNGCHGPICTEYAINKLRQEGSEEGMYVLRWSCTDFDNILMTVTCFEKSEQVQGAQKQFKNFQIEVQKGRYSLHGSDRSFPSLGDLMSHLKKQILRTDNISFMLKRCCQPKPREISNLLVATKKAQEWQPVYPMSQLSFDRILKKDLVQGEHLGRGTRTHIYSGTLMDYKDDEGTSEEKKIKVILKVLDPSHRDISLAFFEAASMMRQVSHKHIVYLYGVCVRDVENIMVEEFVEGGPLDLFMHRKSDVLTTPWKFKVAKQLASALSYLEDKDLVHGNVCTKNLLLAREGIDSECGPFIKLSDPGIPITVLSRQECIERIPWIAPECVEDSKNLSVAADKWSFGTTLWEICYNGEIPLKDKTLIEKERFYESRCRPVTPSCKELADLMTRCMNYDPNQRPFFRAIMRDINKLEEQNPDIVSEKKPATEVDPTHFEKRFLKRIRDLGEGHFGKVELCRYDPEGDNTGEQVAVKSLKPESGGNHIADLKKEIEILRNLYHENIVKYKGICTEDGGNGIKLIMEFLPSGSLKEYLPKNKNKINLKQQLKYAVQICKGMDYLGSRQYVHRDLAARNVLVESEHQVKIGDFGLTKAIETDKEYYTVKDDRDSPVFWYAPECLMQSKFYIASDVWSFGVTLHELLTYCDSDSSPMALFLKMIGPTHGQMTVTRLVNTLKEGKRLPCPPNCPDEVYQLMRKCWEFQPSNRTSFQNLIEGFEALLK

JAK2 = JAK2 (Homo sapiens, UniProt O60674); assay: migration detection kinase assay, JAK2
Sequence of JAK2 (O60674 whole entry): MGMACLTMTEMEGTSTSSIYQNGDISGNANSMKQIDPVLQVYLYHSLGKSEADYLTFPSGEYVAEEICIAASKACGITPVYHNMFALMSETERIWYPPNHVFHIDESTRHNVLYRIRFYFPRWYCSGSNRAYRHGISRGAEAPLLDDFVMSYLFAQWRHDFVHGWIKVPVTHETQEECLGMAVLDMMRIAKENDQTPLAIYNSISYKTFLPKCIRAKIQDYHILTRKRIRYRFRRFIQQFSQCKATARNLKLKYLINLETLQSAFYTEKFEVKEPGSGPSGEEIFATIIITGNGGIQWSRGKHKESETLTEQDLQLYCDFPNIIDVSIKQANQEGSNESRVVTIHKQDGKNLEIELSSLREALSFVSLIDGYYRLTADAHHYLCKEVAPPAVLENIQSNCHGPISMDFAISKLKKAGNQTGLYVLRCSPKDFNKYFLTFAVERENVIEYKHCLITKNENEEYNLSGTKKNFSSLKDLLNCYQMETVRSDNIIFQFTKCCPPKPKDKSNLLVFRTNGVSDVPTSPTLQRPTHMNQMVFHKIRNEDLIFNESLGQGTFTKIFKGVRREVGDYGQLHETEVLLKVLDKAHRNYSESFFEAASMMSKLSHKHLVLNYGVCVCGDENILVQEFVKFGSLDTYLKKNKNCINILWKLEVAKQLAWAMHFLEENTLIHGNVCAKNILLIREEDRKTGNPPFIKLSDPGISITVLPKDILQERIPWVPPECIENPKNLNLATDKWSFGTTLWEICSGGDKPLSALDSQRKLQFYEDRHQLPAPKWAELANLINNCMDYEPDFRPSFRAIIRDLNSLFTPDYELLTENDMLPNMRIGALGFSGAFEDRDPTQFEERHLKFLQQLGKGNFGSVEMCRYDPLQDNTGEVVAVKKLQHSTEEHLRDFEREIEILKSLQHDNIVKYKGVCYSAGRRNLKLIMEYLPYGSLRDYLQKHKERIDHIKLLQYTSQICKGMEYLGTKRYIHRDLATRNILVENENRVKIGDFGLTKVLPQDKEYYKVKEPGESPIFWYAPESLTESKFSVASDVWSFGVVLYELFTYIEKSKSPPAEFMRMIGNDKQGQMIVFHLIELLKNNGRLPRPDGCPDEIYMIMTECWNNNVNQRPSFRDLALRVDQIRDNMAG

keratinocytes = assay: proliferation of keratinocytes; format: cell-based; details: preclinical study
p-STAT signaling pathway = p-STAT signaling pathway induced by cytokines; details: in vivo and in vitro
[5] = phase II and phase III, treatment of AD; cited from earlier work
[6] = fassif, thermodynamic from solid, simulated pre-meal intestinal fluid
[7] = fessif, thermodynamic from solid, simulated postprandial intestinal fluid
[8] = simulated gastric fluid, thermodynamic from solid, simulated gastric juice

Sequence of TYK2 (P29597 whole entry): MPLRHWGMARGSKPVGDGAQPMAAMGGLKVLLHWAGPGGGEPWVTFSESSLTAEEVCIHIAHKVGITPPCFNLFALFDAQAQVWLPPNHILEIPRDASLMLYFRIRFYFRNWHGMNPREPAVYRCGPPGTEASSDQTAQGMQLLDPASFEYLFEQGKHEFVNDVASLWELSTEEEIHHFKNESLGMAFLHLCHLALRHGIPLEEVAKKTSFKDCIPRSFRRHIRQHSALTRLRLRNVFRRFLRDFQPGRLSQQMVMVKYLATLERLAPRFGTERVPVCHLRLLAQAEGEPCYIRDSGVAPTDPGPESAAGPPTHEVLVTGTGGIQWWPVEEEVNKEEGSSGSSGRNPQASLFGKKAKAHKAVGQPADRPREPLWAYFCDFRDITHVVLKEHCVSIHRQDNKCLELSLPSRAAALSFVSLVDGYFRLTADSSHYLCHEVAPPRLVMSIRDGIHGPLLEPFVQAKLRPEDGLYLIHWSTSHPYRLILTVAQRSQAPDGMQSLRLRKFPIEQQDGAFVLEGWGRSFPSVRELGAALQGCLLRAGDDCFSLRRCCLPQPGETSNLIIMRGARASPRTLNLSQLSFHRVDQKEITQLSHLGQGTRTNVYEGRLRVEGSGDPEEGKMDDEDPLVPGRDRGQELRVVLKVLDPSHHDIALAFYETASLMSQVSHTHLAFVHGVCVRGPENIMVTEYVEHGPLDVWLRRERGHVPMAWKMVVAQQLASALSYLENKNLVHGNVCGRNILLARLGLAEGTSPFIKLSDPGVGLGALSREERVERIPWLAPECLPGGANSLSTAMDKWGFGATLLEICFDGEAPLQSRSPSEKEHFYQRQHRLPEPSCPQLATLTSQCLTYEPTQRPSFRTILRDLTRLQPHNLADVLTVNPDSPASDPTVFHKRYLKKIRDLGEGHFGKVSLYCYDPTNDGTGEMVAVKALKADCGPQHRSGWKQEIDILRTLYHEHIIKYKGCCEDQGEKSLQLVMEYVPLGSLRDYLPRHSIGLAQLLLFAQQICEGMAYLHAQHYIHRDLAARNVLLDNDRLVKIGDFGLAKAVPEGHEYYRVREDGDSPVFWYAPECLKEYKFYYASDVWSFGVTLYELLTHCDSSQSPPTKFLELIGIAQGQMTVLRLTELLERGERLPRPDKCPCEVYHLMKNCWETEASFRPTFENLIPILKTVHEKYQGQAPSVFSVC

stability: appearance, related substances, assay, moisture, crystal form, content, microbial limit ([1]; accelerated condition 40° C.±2° C./75%±5% RH, 6 months): microbial limit were not changed
Conclusion on crystal form ([1]; accelerated, intermediate condition and long term tests): keeps stable
stability: appearance, related substances, assay, moisture, crystal form, content ([1]; high humidity of 92.5% RH, 30 days): not changed
stability: appearance, related substances, assay, moisture, crystal form, content ([1]; high temperature of 60° C., 30 days): not changed
stability: appearance, related substances, assay, moisture, crystal form, content ([1]; illumination of 1×ICH (1.2×10^6 Lux·hr, 200 w·hr/m^2)): not changed
Conclusion on crystal form ([1]; influencing factor test: high temperature, high humidity, illumination): keeps stable
stability: appearance, related substances, assay, moisture, crystal form, content, microbial limit ([1]; long-term condition 25° C.±2° C./60%±5% RH, 18 months): microbial limit were not changed
IC50 (TYK2; 1 mM ATP): 1 nM
solubility at 1 h [2, 6]: 100 µg/mL (≈ 212 µM)
solubility at 4 h [2, 6]: 111 µg/mL (≈ 234 µM)
solubility at 24 h [2, 6]: 120 µg/mL (≈ 253 µM)
solubility at 1 h [2, 7]: 389 µg/mL (≈ 822 µM)
solubility at 4 h [2, 7]: 474 µg/mL (≈ 1000 µM)
solubility at 24 h [2, 7]: 627 µg/mL (≈ 1320 µM)
solubility at 1 h [2, 8]: 97.4 µg/mL (≈ 206 µM)
solubility at 4 h [2, 8]: 92.3 µg/mL (≈ 195 µM)
solubility at 24 h [2, 8]: 102 µg/mL (≈ 215 µM)
XRPD of remaining solid ([2]; simulated gastric juice): Crystal form I
solubility ([2]; simulated gastrointestinal fluid, 37 °C, fassgf or other biorelevant, thermodynamic from solid, summary statement): > 8 µg/mL
XRPD of remaining solid ([2]; simulated postprandial intestinal fluid): Crystal form I
XRPD of remaining solid ([2]; simulated pre-meal intestinal fluid): Crystal form I
pH after 24 h ([2]; suspension in simulated gastric juice): 2.1 (simulated
pH after 24 h ([2]; suspension in simulated postprandial intestinal fluid): 5.1 (simulated
pH after 24 h ([2]; suspension in simulated pre-meal intestinal fluid): 6.6 (simulated
XRPD after pressing [3]: Crystal form I
change of crystal form after pressing [3]: The crystal form is not changed,
XRPD after wet grinding (simulated wet grinding; Ethanol): Crystal form I
change of crystal form after wet grinding (simulated wet grinding; Ethanol): The crystal form is not changed, and
change of crystallinity after wet grinding (simulated wet grinding; Ethanol): the crystallinity is slightly reduced
XRPD after wet grinding (simulated wet grinding; Water): Crystal form I
change of crystal form after wet grinding (simulated wet grinding; Water): The crystal form is not changed, and
change of crystallinity after wet grinding (simulated wet grinding; Water): the crystallinity is slightly reduced
IC50 (JAK3): 275 nM
XRPD result ([4]; Acetone (a.w. = 0), 10 days): Crystal form I
XRPD result ([4]; Acetone (a.w. = 0), 22 days): Crystal form I
XRPD result ([4]; Acetone/water 36:64 (a.w. = 0.9), 12 days): Crystal form I
XRPD result ([4]; Acetone/water 60.4:39.6 (a.w. = 0.8), 12 days): Crystal form I
XRPD result ([4]; Acetone/water 75.8:24.2 (a.w. = 0.7), 12 days): Crystal form I
XRPD result ([4]; Acetone/water 91:9 (a.w. = 0.6), 10 days): Crystal form I
XRPD result ([4]; Acetone/water 91:9 (a.w. = 0.6), 22 days): Crystal form I
XRPD result ([4]; Acetone/water 94:6 (a.w. = 0.5), 10 days): Crystal form I
XRPD result ([4]; Acetone/water 94:6 (a.w. = 0.5), 22 days): Crystal form I
XRPD result ([4]; Acetone/water 97:3 (a.w. = 0.3), 10 days): Crystal form I
XRPD result ([4]; Acetone/water 97:3 (a.w. = 0.3), 22 days): Crystal form I
XRPD result ([4]; Acetone/water 99:1 (a.w. = 0.1), 10 days): Crystal form I
XRPD result ([4]; Acetone/water 99:1 (a.w. = 0.1), 22 days): Crystal form I
XRPD result ([4]; Water (a.w. = 1), 10 days): Crystal form I
XRPD result ([4]; Water (a.w. = 1), 22 days): Crystal form I
change of crystal form after dry grinding (simulated dry grinding): The crystal form is not changed, and
change of crystallinity after dry grinding (simulated dry grinding): the crystallinity is slightly reduced
hygroscopicity (hygroscopicity by DVS): no obvious hygroscopicity
Hygroscopicity, weight gain (DVS) (hygroscopicity by DVS; under 95% RH): Weight gain of 0.9%
IC50 (JAK1; 1 mM ATP): 10 nM
IC50 (JAK2): < 0.51 nM
Structure (SMILES): Cc1cnc(Nc2cnn(C3CC(C)(C)OC(C)(C)C3)c2)nc1-c1ccc(C(=O)NCC#N)cc1 [crystal form I]
crystal form stability over water activity range ([4]; up to 22 days, water activity range 1% to 100%): not transformed into a hydrate or other crystal forms

inhibitory effect on TYK2 (TYK2; preclinical study): strong inhibitory effect
inhibitory effect on JAK1 (JAK1; preclinical study): strong inhibitory effect
inhibitory effect on JAK2 (JAK2; preclinical study): strong inhibitory effect
Structure (SMILES): Cc1cnc(Nc2cnn(C3CC(C)(C)OC(C)(C)C3)c2)nc1-c1ccc(C(=O)NCC#N)cc1 [LNK01004]
inhibition of proliferation of keratinocytes (keratinocytes): can also inhibit the proliferation of keratinocytes
inhibition of p-STAT signaling pathway induced by multiple cytokines (p-STAT signaling pathway): can inhibit p-STAT signaling pathway

Structure (SMILES): N#CC[C@H](C1CCCC1)n1cc(-c2ncnc3[nH]ccc23)cn1 [Ruxolitinib]
tolerability [5]: well tolerated

From US12162866B1, “Crystal form of pyrazolyl-amino-pyrimidinyl derivative, and preparation method therefor and use thereof” (LYNK PHARMACEUTICALS CO., LTD., priority 2023, dated 2024)
